Drawing on patent publication US11225469B2, “Inhibitors of phosphoglycerate dehydrogenase (PHGDH) and uses thereof” (Whitehead Institute for Biomedical Research, priority 2015, dated 2022), this text covers IC50 for 61 compounds.

The target in the experiment is PHGDH (Homo sapiens (Human), UniProt O43175). The experiment in a line: PHGDH inhibition, coupled assay with PSAT1/PSPH and diaphorase/resazurin readout. The class given is biochemical. Particulars: Table E9; mixture with PSAT1, PSPH; diaphorase/resazurin reporter. (In general: The colour change of resazurin is a common sign of viable cells or microbes.)
PHGDH, sequence (O43175 whole entry): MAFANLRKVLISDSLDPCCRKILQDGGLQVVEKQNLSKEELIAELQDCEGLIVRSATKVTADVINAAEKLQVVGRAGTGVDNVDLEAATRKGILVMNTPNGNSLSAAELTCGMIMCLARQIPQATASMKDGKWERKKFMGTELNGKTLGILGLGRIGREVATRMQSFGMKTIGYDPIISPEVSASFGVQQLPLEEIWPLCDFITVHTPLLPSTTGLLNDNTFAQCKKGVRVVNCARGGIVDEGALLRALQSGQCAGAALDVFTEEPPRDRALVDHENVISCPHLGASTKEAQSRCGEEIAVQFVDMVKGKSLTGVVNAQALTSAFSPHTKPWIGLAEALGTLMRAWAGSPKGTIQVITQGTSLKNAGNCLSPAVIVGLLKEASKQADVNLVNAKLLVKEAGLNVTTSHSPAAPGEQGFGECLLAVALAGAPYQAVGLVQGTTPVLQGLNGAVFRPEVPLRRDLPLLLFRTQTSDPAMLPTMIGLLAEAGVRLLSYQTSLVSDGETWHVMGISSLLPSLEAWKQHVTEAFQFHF

The IC50 is the midpoint of a concentration-inhibition curve. As to `Cc1cc(C)nc(NC(=S)N2CCN(c3ncc(C(F)(F)F)cc3Cl)CC2)c1` [Compound 111], the IC50 lay in the range of 5 to 10 µM.

As to `Cc1cc(C)nc(NC(=S)N2CCN(Cc3ccccc3)CC2)c1` [Compound 274], the 50% inhibitory concentration (IC50) was 10 to 20 µM.

As to `Cc1ccnc(NC(=S)N2CCN(c3cccc(Cl)c3Cl)CC2)c1` [Compound 171], the IC50 was 5 to 10 µM.

Regarding `Cc1cc(C)nc(NC(=S)N2CCN(c3cnccn3)CC2)c1` [Compound 118], the concentration for half-maximal inhibition (IC50) is not below 20 µM.

Consider `Cc1cc(C)nc(NC(=S)N2CCN(C3=Nc4ccccc4Oc4ccccc43)CC2)c1` [Compound 154], for which the IC50 is not below 20 µM.

Regarding `COc1ccnc(NC(=S)N2CCN(c3ccc4ccccc4n3)CC2)c1` [Compound 186], the half-maximal inhibitory concentration (IC50) was 10 to 20 µM.

Regarding `Cc1ccnc(NC(=S)N2CC3CN(c4ncc(C(F)(F)F)cc4Cl)CC3C2)c1` (stereo not shown) [Compound 227], the IC50 is 10 to 20 µM.

As to `Cc1cc(C)nc(NC(=S)N2CCN(Cc3ccc(C(F)(F)F)cc3)C(c3ccccc3)C2)c1` (stereo not shown) [Compound 273], the IC50 is 10 to 20 µM.

As to `Cc1ccnc(NC(=S)N2CCN(c3ccc(Br)cc3)CC2)c1` [Compound 9], the IC50 was not below 20 µM.

For the compound `Cc1cncc(NC(=S)N2CCN(c3cccc(C(F)(F)F)c3)CC2)c1` [Compound 29], the concentration for half-maximal inhibition (IC50) lay within 5 to 10 µM.

`Cc1cc(C)nc(NC(=S)N2CCN(CC3CC3)CC2)c1` [Compound 301]: the IC50 is not below 20 µM.

On to `Cc1cc(C)nc(NC(=S)N2CCN(c3cc(C(F)(F)F)cc(C(F)(F)F)c3)CC2)c1` [Compound 64], for which the IC50 lay within 5 to 10 µM.

For the compound `Cc1cc(C)nc(NC(=S)N2CCN([S+](=O)([O-])c3cccc(C(F)(F)F)c3)CC2)c1` [Compound 100], the half-maximal inhibitory concentration (IC50) is less than 5 µM.

Turning to `Cc1ccnc(C(=S)N2CCN(c3cccc(C(F)(F)F)c3)CC2)c1` [Compound 62], the IC50 was not below 20 µM.

Consider `Cc1ccnc(NC(=S)N[C@H]2CCN(c3cccc(C(F)(F)F)c3)C2)c1` [Compound 43], for which the IC50 is not below 20 µM.

As to `Cc1ccnc(NC(=S)N2CCc3cc(C(F)(F)F)ccc3C2)c1` [Compound 61], the IC50 lay within 10 to 20 µM.

With `N=C(NC(=S)N1CCN(c2cccc(C(F)(F)F)c2)CC1)c1ccccn1` [Compound 238], the IC50 was not below 20 µM.

In the case of `Cc1ccnc(NC(=S)N2CC3CN(c4ccc(Cl)cc4C(F)(F)F)CC3C2)c1` (stereo not shown) [Compound 224], the IC50 was not below 20 µM.

`Cc1cc(C)nc(NC(=S)N2CCN(c3ccc4nncn4c3)CC2)c1` [Compound 161]: the IC50 is not below 20 µM.

On to `COc1cccc(NC(=S)N2CCN(c3ncc(C(F)(F)F)cc3Cl)CC2)n1` [Compound 195], for which the IC50 is less than 5 µM.

As for `Cc1cc(C)nc(NC(=S)N2CCC(Nc3ccc(C(F)(F)F)cc3)CC2)c1` [Compound 258], the IC50 is less than 5 µM.

For the compound `Cc1cc2nc(NC(=S)N3CCN(c4cccc(C(F)(F)F)c4)CC3)[nH]c2cc1C` [Compound 244], the concentration for half-maximal inhibition (IC50) was less than 5 µM.

For the compound `Cc1ccc2nc(NC(=S)N3CCN(c4cccc(C(F)(F)F)c4)CC3)[nH]c2c1` [Compound 239], the IC50 was in the range of 10 to 20 µM.

On to `Cc1cc(C)nc(NC(=S)N2CCN(c3cccc4ccncc34)CC2)c1` [Compound 149], for which the 50% inhibitory concentration (IC50) lay in the range of 10 to 20 µM.

In the case of `Cc1cc(C)nc(NC(=S)N2CCN(Cc3ccccc3Cl)CC2)c1` [Compound 289], the half-inhibitory concentration (IC50) was in the range of 10 to 20 µM.

With `Cc1cc(C)nc(NC(=S)N2CCN(C(=O)c3cccc(C(F)(F)F)c3)CC2)c1` [Compound 261], the IC50 lay in the range of 5 to 10 µM.

For the compound `Cc1ccnc(NC(=S)N2CCN(c3ccc(F)cc3)CC2)c1` [Compound 7], the IC50 is not below 20 µM.

On to `Cc1cc(C)nc(NC(=S)N2CCN(c3nccc(C(F)(F)F)n3)CC2)c1` [Compound 117], for which the half-inhibitory concentration (IC50) is less than 5 µM.

In the case of `COc1ccnc(NC(=S)N2CCN(c3ccccc3C(F)(F)F)CC2)c1` [Compound 183], the IC50 lay within 5 to 10 µM.

For the compound `Cc1ccnc(NC(=S)N2CCN(c3ccc(O)cc3)CC2)c1` [Compound 13], the half-inhibitory concentration (IC50) is not below 20 µM.

Turning to `Cc1cc(C)nc(NC(=S)N2CCN(c3cccc([S+](C)(=O)[O-])c3)CC2)c1` [Compound 140], the IC50 is not below 20 µM.

In the case of `Cc1cc(C)nc(NC(=S)N2CCN(Cc3c(F)cccc3Cl)CC2)c1` [Compound 94], the 50% inhibitory concentration (IC50) lay in the range of 5 to 10 µM.

With `S=C(Nc1cc(Cl)ccn1)N1CCN(c2ccc(Cl)cc2Cl)CC1` [Compound 199], the IC50 was not below 20 µM.

As to `Cc1cc(C)nc(NC(=S)N2CCN(Cc3cccnc3)CC2)c1` [Compound 283], the half-inhibitory concentration (IC50) is not below 20 µM.

Turning to `Cc1ccnc(NC(=S)N2CCN(c3ccc(N)cc3)CC2)c1` [Compound 17], the IC50 is not below 20 µM.

As for `Cc1cc(C)nc(NC(=S)N2CCN(C3CCCCC3)CC2)c1` [Compound 253], the IC50 was in the range of 10 to 20 µM.

`COc1cccc(NC(=S)N2CCN(c3cc(Cl)cc(Cl)c3)CC2)n1` [Compound 187]: the IC50 is not below 20 µM.

Turning to `Cc1cc(C)nc(NC(=S)N2CCN(c3cccc(C(F)(F)F)n3)CC2)c1` [Compound 116], the IC50 is 5 to 10 µM.

As for `COc1ccccc1CN1CCN(C(=S)Nc2cc(C)cc(C)n2)CC1` [Compound 286], the IC50 was 10 to 20 µM.

On to `Cc1cc(C)nc(NC(=S)N2CCN(c3coc4ccccc34)CC2)c1` [Compound 86], for which the IC50 lay in the range of 10 to 20 µM.

`Cc1cc(C)nc(NC(=S)N2CCC(NC(=O)c3ccc(C(F)(F)F)cc3)CC2)c1` [Compound 266]: the 50% inhibitory concentration (IC50) was less than 5 µM.

As for `Cc1cc(C)nc(NC(=S)N2CCN(c3ccc([N+](=O)[O-])cc3Cl)CC2)c1` [Compound 217], the concentration for half-maximal inhibition (IC50) lay within 10 to 20 µM.

Regarding `Cc1ccnc(NC(=S)N2CCN(c3ccccc3C(F)(F)F)CC2)c1` [Compound 41], the IC50 lay within 5 to 10 µM.

On to `Cc1cc(C)nc(NC(=S)N2CCC(CN3CCCCC3)CC2)c1` [Compound 271], for which the concentration for half-maximal inhibition (IC50) is not below 20 µM.

In the case of `Cc1cc(C)nc(NC(=S)N2CCN(Cc3ccc(C(F)(F)F)c(Cl)c3)CC2)c1` [Compound 300], the half-inhibitory concentration (IC50) was 5 to 10 µM.

As for `Cc1cc(C)nc(NC(=S)N2CCC(C(=O)N3CCOCC3)CC2)c1` [Compound 257], the IC50 was not below 20 µM.

Turning to `Cc1ccnc(NC(=S)NC2CN(c3cccc(C(F)(F)F)c3)C2)c1` [Compound 47], the half-inhibitory concentration (IC50) was not below 20 µM.

In the case of `Cc1cc(C)nc(NC(=S)N2CCN(Cc3ccc(C(F)(F)F)cc3)[C@H](C)C2)c1` [Compound 298], the IC50 was less than 5 µM.

Take `FC(F)(F)c1cccc(N2CCN(C(=S)Nc3cc[nH]n3)CC2)c1` [Compound 236]: the IC50 lay within 5 to 10 µM.

Take `Cc1cc(C)nc(NC(=S)N2CCN(c3ccc(Cl)c(C(F)(F)F)c3)CC2)c1` [Compound 211]: the IC50 fell in the range of 10 to 20 µM.

For `Cc1cc(C)nc(NC(=S)N2CCN(c3nccc4ccsc34)CC2)c1` [Compound 156], the IC50 was not below 20 µM.

As to `Cc1cc(C)nc(NC(=S)N2CCN(c3ccc4occc4c3)CC2)c1` [Compound 164], the IC50 was in the range of 10 to 20 µM.

With `Cc1cc(C)nc(NC(=S)N2CCN(c3nc4ccccc4s3)CC2)c1` [Compound 106], the IC50 fell in the range of 10 to 20 µM.

On to `Cc1cc(C)nc(NC(=S)N2CCN(c3cc(Cl)cc(Cl)c3)CC2)c1` [Compound 65], for which the IC50 lay within 5 to 10 µM.

Turning to `COc1ccnc(NC(=S)N2CCN(c3cc(C(F)(F)F)cc(C(F)(F)F)c3)CC2)c1` [Compound 179], the IC50 is less than 5 µM.

As to `Cc1ccnc(NC(=S)N2CCCc3ccc(C(F)(F)F)cc32)c1` [Compound 60], the IC50 was not below 20 µM.

As to `Cc1cc(C)nc(NC(=S)N2CCN(c3ccc(C(=O)O)cc3)CC2)c1` [Compound 101], the IC50 was not below 20 µM.

Regarding `Cc1cc(C)nc(NC(=S)N2CCN(c3ccccn3)CC2)c1` [Compound 77], the concentration for half-maximal inhibition (IC50) was not below 20 µM.

On to `COc1cccc(NC(=S)N2CCN(c3ccc(C(F)(F)F)cc3[N+](=O)[O-])CC2)n1` [Compound 192], for which the IC50 lay within 10 to 20 µM.

Consider `Cc1cc(C)nc(NC(=S)N2CCN(Cc3ccc(C)c(C(F)(F)F)c3)CC2)c1` [Compound 302], for which the 50% inhibitory concentration (IC50) fell in the range of 5 to 10 µM.

Take `Cc1ccnc(NC(=S)N2CCN(c3cc(C(F)(F)F)cc(C(F)(F)F)c3)CC2)c1` [Compound 170]: the 50% inhibitory concentration (IC50) was in the range of 5 to 10 µM.
